From patent US7838674B2, “Tetracyclic lactame derivatives” (Novartis AG, priority 2007, dated 2010)
Counter-ions that a name gives are not always drawn.

Target: T1, MAPKAPK2 enzyme (HIS-MK2, Invitrogen PV4019) (Homo sapiens, UniProt P49137)
T1 construct: His; purchased Invitrogen PV4019
Assay: Alternative MAPKAPK2 assay (Caliper microfluidic mobility shift, HSP27-peptide)
Format: biochemical
Conditions: HIS-MK2 0.013 nM, ATP 10 μM, 60 min at 30° C.

T1 sequence (P49137 whole entry): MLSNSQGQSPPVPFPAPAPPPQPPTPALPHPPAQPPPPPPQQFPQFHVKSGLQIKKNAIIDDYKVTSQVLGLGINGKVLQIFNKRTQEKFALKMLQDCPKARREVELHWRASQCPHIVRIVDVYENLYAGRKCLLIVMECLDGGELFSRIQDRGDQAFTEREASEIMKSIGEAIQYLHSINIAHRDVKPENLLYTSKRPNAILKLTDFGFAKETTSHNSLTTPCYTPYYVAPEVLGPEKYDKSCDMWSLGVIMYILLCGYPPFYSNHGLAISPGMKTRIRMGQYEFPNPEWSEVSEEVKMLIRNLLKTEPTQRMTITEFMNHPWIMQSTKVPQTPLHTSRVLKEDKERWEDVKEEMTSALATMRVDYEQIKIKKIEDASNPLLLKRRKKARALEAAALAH

Structure (SMILES)	IC50 [µM]
O=C1NCC2(CC2)c2[nH]c3c(c21)CCc1cnc(-c2ccncc2)cc1-3 [Example 124, 2-(1-Aminomethyl-cyclopropyl)-8-pyridin-4-yl-4,5-dihydro-1H-pyrrolo[2,3-f]isoquinoline-3-carboxylic acid lactam]	0.055
COc1ccc(-c2cc3c(cn2)CCc2c-3oc3c2C(=O)NC2(CNC2)C3)cc1 [Example 41, 2-(3-Amino-azetidin-3-ylmethyl)-8-(4-methoxy-phenyl)-4,5-dihydro-furo[2,3-f]isoquinoline-3-carboxylic acid lactam hydrochloride]	0.021
CN1CC2(C1)c1[nH]c3c(c1C(=O)NC21CC1)CCc1cnc(-c2ccc(OCCN4CCOCC4)cc2)cc1-3 [Example 259, 2-[3-(1-Amino-cyclopropyl)-1-methyl-azetidin-3-yl]-8-[4-(2-morpholin-4-yl-ethoxy)-phenyl]-4,5-dihydro-1H-pyrrolo[2,3-f]isoquinoline-3-carboxylic acid lactam]	< 0.003
Cn1c2c(c3c1-c1nc(-c4cccc(C#N)c4)ncc1CC3)C(=O)NC1(CNC1)C2 [Example 287, 2-(3-Amino-azetidin-3-ylmethyl)-8-(3-cyano-phenyl)-1-methyl-4,5-dihydro-1H-1,7,9-triaza-cyclopenta[a]naphthalene-3-carboxylic acid lactam hydrochloride]	0.025
Cc1ccc(-c2cc3c(cn2)CCc2c4c(n(C)c2-3)CC2(CN(C)C2)NC4=O)cn1 [Example 150, 2-(3-Amino-1-methyl-azetidin-3-ylmethyl)-8-(6-methyl-pyridin-3-yl)-1-methyl-4,5-dihydro-1H-pyrrolo[2,3-f]isoquinoline-3-carboxylic acid lactam]	0.092
O=C1NC2(CC2)Cc2[nH]c3c(c21)CCc1cnc(Oc2ccc(F)cc2F)nc1-3 [Example 266, 2-(1-Amino-cyclopropylmethyl)-8-(2,4-difluoro-phenoxy)-4,5-dihydro-1H-1,7,9-triaza-cyclopenta[a]naphthalene-3-carboxylic acid lactam]	> 0.01
N#Cc1cncc(-c2cc3c(cn2)CCc2c-3[nH]c3c2C(=O)NCC32CC2)c1 [Example 113, 2-(1-Aminomethyl-cyclopropyl)-8-(5-cyano-pyridin-3-yl)-4,5-dihydro-1H-pyrrolo[2,3-f]isoquinoline-3-carboxylic acid lactam]	0.023
CN1CC2(CNC(=O)c3c2[nH]c2c3CCc3cnc(-c4cccc(C(=O)NCc5ccccc5)c4)cc3-2)C1 [Example 262, 2-(3-Aminomethyl-1-methyl-azetidin-3-yl)-8-(3-benzylcarbamoyl-phenyl)-4,5-dihydro-1H-pyrrolo[2,3-f]isoquinoline-3-carboxylic acid lactam]	< 0.003
COc1ccc(-c2cc3c(cn2)CCc2c-3[nH]c3c2C(=O)NCC32CCC2)cc1F [Example 299, 2-(3-Fluoro-4-methoxy-phenyl)-10-spirocyclobutyl-5,6,8,9,10,11-hexahydro-3,8,11-triaza-benzo[a]fluoren-7-one]	0.039
CN1CCN(c2ccc(-c3cc4c(cn3)CCc3c-4[nH]c4c3C(=O)NC3(CC3)C43CC3)cc2)CC1 [Example 221, 2-(1′-Amino-bicyclopropyl-1-yl)-8-[4-(4-methyl-piperazin-1-yl)-phenyl]-4,5-dihydro-1H-pyrrolo[2,3-f]isoquinoline-3-carboxylic acid lactam]	0.029
CCN1CC2(C1)c1[nH]c3c(c1C(=O)NC21CC1)CCc1cnc(-c2ccccc2F)cc1-3 [Example 253, 2-[3-(1-Amino-cyclopropyl)-1-ethyl-azetidin-3-yl]-8-(2-fluoro-phenyl)-4,5-dihydro-1H-pyrrolo[2,3-f]isoquinoline-3-carboxylic acid lactam]	0.015
COc1ccc(-c2cc3c(cn2)CCc2c4c(n(C)c2-3)C2(CNC4=O)CN(C)C2)cc1 [Example 164, 2-(3-Aminomethyl-1-methyl-azetidin-3-yl)-8-(4-methoxy-phenyl)-1-methyl-4,5-dihydro-1H-pyrrolo[2,3-f]isoquinoline-3-carboxylic acid lactam]	0.022
COc1cc(OC)cc(-c2cc3c(cn2)CCc2c4c(n(C)c2-3)CC2(CNC2)NC4=O)c1 [Example 143, 2-(3-Amino-azetidin-3-ylmethyl)-8-(3,5-dimethoxy-phenyl)-1-methyl-4,5-dihydro-1H-pyrrolo[2,3-f]isoquinoline-3-carboxylic acid lactam hydrochloride]	0.069
Cc1ccc(-c2cc3c(cn2)CCc2c4c(n(C)c2-3)CC2(CNC2)NC4=O)cn1 [Example 151, 2-(3-Amino-azetidin-3-ylmethyl)-8-(6-methyl-pyridin-3-yl)-1-methyl-4,5-dihydro-1H-pyrrolo[2,3-f]isoquinoline-3-carboxylic acid lactam hydrochloride]	0.035
O=C1NCC2(CC2)c2[nH]c3c(c21)CCc1cnc(-c2cncc(N4CCOCC4)c2)cc1-3 [Example 302, 2-(5-Morpholin-4-yl-pyridin-3-yl)-10-spirocyclopropyl-5,6,8,9,10,11-hexahydro-3,8,11-triaza-benzo[a]fluoren-7-one]	0.022
O=C(NCc1ccccc1)c1ccc(-c2cc3c(cn2)CCc2c-3[nH]c3c2C(=O)NC2(CC2)C3)o1 [Example 282, 5-(9,9-Spirocyclopropyl-7-oxo-6,7,8,9,10,11-hexahydro-5H-3,8,11-triaza-benzo[a]fluoren-2-yl)-furan-2-carboxylic acid benzylamide]	0.021
CN(C)c1ccc(-c2cc3c(cn2)CCc2c-3[nH]c3c2C(=O)NC2(CC2)C32CC2)cn1 [Example 197, 2-(1′-Amino-bicyclopropyl-1-yl)-8-(6-dimethylamino-pyridin-3-yl)-4,5-dihydro-1H-pyrrolo[2,3-f]isoquinoline-3-carboxylic acid lactam]	0.038
O=C(NCc1ccccc1)c1cccc(-c2cc3c(cn2)CCc2c-3[nH]c3c2C(=O)NCC32CN(CC3CC3)C2)c1 [Example 261, 2-(3-Aminomethyl-1-cyclopropylmethyl-azetidin-3-yl)-8-(3-benzylcarbamoyl-phenyl)-4,5-dihydro-1H-pyrrolo[2,3-f]isoquinoline-3-carboxylic acid lactam]	0.011
CN1CC2(C1)c1[nH]c3c(c1C(=O)NC21CC1)CCc1cnc(-c2ccccc2F)cc1-3 [Example 256, 2-[3-(1-Amino-cyclopropyl)-1-methyl-azetidin-3-yl]-8-(2-fluoro-phenyl)-4,5-dihydro-1H-pyrrolo[2,3-f]isoquinoline-3-carboxylic acid lactam]	< 0.003
Cc1ccc(-c2cc3c(cn2)CCc2c-3[nH]c3c2C(=O)NC2(CC2)C3)c(F)n1 [Example 158, 2-(1-Amino-cyclopropylmethyl)-8-(2-fluoro-6-methyl-pyridin-3-yl)-4,5-dihydro-1H-pyrrolo[2,3-f]isoquinoline-3-carboxylic acid lactam]	0.051
COc1ccc(-c2cc3c(cn2)CCc2c-3[nH]c3c2C(=O)NC2(CC2)C32CN(C)C2)cn1 [Example 255, 2-[3-(1-Amino-cyclopropyl)-1-methyl-azetidin-3-yl]-8-(6-methoxy-pyridin-3-yl)-4,5-dihydro-1H-pyrrolo[2,3-f]isoquinoline-3-carboxylic acid lactam]	< 0.003
